Experimental data: patent publication US20210147932A1, “FLUORESCENT PROBES FOR QUANTIFICATION OF DNA DAMAGE AND REPAIR” (The Board of Trustees of the Leland Stanford Junior …, priority 2019, published 2021)

Tests used:
Format in all cases: biochemical
[1] = test system: DNA AP site (AP site containing DNA, oligo 15); assay: Fluorescence response of probe covalently attached to the AP site of a DNA hairpin; settings: for brightness when bound to the AP site compared to CCVJ1: Oligo 15 DNA
Procedure: FIG. 2B provides emission spectra of oligonucleotide-probe conjugates compared to the emission spectra of the free probe at 2 μM concentration in 50 mM Tris buffer pH 7.0. Excitation was at 470 nm for Compound (1) (also referred to herein as CCVJ1) and 450 nm for Compounds 8 and 9 (also referred to herein as NP1 and NP2) and Compounds 4 and 6 (also referred to herein as BD1 and BD2).
To assess the potential fluorescence response of each probe, a 17mer DNA hairpin containing a single AP site was prepared and reacted it with a 10-fold excess of probe overnight. The subsequent DNA-probe conjugates were precipitated to remove excess fluorophore and full DNA labelling was confirmed by MALDI-TOF mass spectrometry (Table 1). The reacted DNAs were re-suspended in buffer to a concentration of 2 μM and the emission spectra compared with the spectra of the free probes in solution. […] In addition to its large fluorescence response, CCVJ1 is accessed readily through a facile 4-step synthesis and has good spectral overlap with fluorescein. This makes the probe accessible to a wide range of researchers and well suited to the majority of fluorescence-based instruments.
(§1) In addition to the 5′ and 3′ neighboring bases, studies were done of the effect of the orphaned base Z paired opposite the abasic site on the UBER probe system (FIG. 10, panels C-D). Using the sequence where X=C and Y=G, the identity was varied of the base Z opposite the AP site. […] As a result, the smaller pyrimidine bases yielded a greater fluorescence light up response than the larger purine bases. It was also observed a strong effect by the opposing base on the rate of oxime formation (FIG. 10, panel D). […] This trend is in contrast to the neighboring base effect discussed above in which stronger stacking bases accelerated the rate of oxime formation.
(§2) General procedure for creating AP site DNA: A deoxyuridine containing oligonucleotide (typically 5-20 μM) was treated with 10 U/mL E. coli UDG (New England Biolabs) for 10 minutes at 37° C. in buffer to create AP site containing DNA (see below for MALDI-TOF confirmation). The hairpin was then reacted with probe from a DMSO stock solution (final DMSO concentration <5%).
Procedure for assessing fluorescence response of probes: To assess the fluorescence response of the probes, 25 μM AP site containing DNA (oligo 15) was prepared in a 20 μL solution and allowed to react with 500 μM of each probe overnight. The DNA was then precipitated by the addition of 80 μL 0.33 M sodium acetate and 300 μL ethanol and centrifuged at 21,100 g for 1 hr at 4° C. The resulting DNA pellet was washed twice with 70% EtOH and re-suspended in buffer to a concentration of 2 μM. A portion of the DNA pellet was used for MALDI-TOF analysis. The emission spectra of the probe-oligonucleotide conjugate was measured and compared against a 2 μM solution of the free probe

[2] = test system: AP-DNA; assay: Oxime formation kinetics of probe with AP-DNA; settings: 5 μM probe; for rate of oxime formation with AP DNA: Oligo 15 20 μM, 37° C.; for reaction rate of oxime formation relative to CCVJ1 (longer linker): 20 μM AP-DNA, 50 mM Tris pH 7.0
Procedure: FIG. 3 provides representative plots for calculations of k2 for Compound (1) (CCVJ1) under various buffer conditions with oligo 15. Plots were fitted in OriginPro 8.5 according to the equation derived by Larsen et. al.^5 for second-order rate constants of oxime formation. Apparent second-order rate constants were calculated as the average of three replicates.
FIG. 5A provides fluorescence real-times responses for oxime formation under varied conditions. The Time course of oxime formation between Compound (1) (CCVJ1) (5 μM) and AP-DNA (20 μM) under varied buffer conditions (50 mM) is shown. Ionic strength adjusted to 150 mM with NaCl
Next the reaction rates with CCVJ1 were evaluated. To measure oxime formation kinetics, 5 μM CCVJ1 was reacted with 20 μM AP DNA, and the resulting fluorescence time course was used to determine second-order rate constants by nonlinear regression analysis. Tris buffer was selected since it is commonly used in glycosylase assays with a salt concentration of 100 mM NaCl.
In addition to Tris buffer, oxime formation kinetics were also measured for CCVJ1 with AP DNA in a solution of a catalytic amine buffer previously shown to accelerate oxime formation. To this end, it was employed 50 mM N,N-dimethylethylenediamine (DEDA)•HCl buffered to a pH of 7.0 in place of the above Tris buffers. […] Such rapid rates of oxime formation at neutral pH are unprecedented for unactivated aldehydes.
as §1, §2
Fluorescence time courses: Unless otherwise stated, fluorescence time courses were collected on a Fluoroskan Ascent Microplate Fluorometer (Thermo Fisher Scientific) with black, non-binding 384 well plates (Greiner) at a reaction volume of 60 μL with 50 mM Tris buffer pH 7 (ionic strength adjusted to 100 mM with NaCl) with a fluorescein filter set (Ex. 485, Em. 538).

[3] = test system: AP site-containing DNA; assay: Competition for oxime formation between CCVJ1 and AP site-containing DNA; settings: up to 500 μM linker, CCVJ1 5 μM, AP DNA 20 μM
Procedure: FIG. 6 provides effect of adding exemplary linker NH2CH2CH2ONH2 to the reaction of Compound (1) (CCVJ1) (5 μM) with AP site containing DNA (20 μM) in buffer.
FIG. 9 provides interaction between Compound (1) (CCVJ1) and DNA. […] (Ex. 485, Em. 538).
FIG. 14 provides effect of competing aldehydes/ketones on maximum fluorescence signal.
Additional experiments were performed to study the origins of this unusually rapid reaction. […] To test the effect that proximity between the alkoxyamine and planar portion of the probe had on oxime kinetics in our probes, probes were synthesized having variable-length linkers (CCVJ2 and CCVJ3) from aldehyde reactive linkers L2 and L3 respectively (FIG. 2A). […] To test the importance of a double-stranded DNA structure to the rate and fluorescence response, an AP-containing single-stranded DNA oligonucleotide was reacted with CCVJ1. At pH 7, CCVJ1 reacted with a second-order rate constant of 33 M^−1s^−1 with the single-stranded substrate, roughly 5-fold slower than a double-stranded hairpin with identical sequence context (FIG. 8).
To further explore the hypothesis that the oxime rate acceleration in these AP-site DNAs was related to base stacking interactions, the fluorescence was measured of CCVJ1 in the presence and absence of a non-lesion containing DNA hairpin.
Since the probe design involves conformational restriction to induce a light-up signal, it was hypothesized that off-target oxime formation with small molecules might induce a relatively small signal relative to DNA, thus providing a measure of selectivity in signaling. […] Another potential aspect is that ketones or aldehydes in the environment might compete with the DNA AP site to react with the aminooxy group, thereby consuming the free probe and reducing the maximum signal. Initial testing of the reactivity of CCVJ1 with AP site-containing DNA in the presence of increasing amounts of competing 2-deoxyribose, the closest small-molecule analogue to the DNA AP site. […] This was repeated this experiment with pyruvic acid, a highly reactive ketone and a common cellular metabolite.

[4] = target: T1, OGG1 (Homo sapiens, UniProt O15527); assay: OGG1 activity in MCF7 lysates with CCVJ1; settings: MCF7 lysate 0.2 mg/mL, 4 h incubation, 25 μM CCVJ1
T1 construct: host or cells: MCF-7 whole cell lysate
Procedure: FIG. 20 provides fluorescence measurement of MCF7 cell lysates (0.2 mg/mL) with 25 μM Compound (1) (CCVJ1) following a 4-hour incubation with 5 μM of an OGG1 hairpin substrate. The inhibitor SU0268 was used to abrogate OGG1 activity. Error bars represent standard deviation of three replicates.
Encouraged by the results, whether the UBER probe could detect endogenous glycosylase activity was tested from a more challenging target such as OGG1. It is well established that the turnover number of UNG is quite high (˜1-10 s^−1)^5 while the turnover number for many other glycosylases is quite low (0.001-0.1 s^−1). Additionally, most glycosylases, including OGG1, have very low basal expression levels in healthy cells. Given these facts, previous attempts to detect OGG1 activity in lysates have relied on a multistep signal amplification process or extended reaction times (24-48 hrs) to yield signal. […] In this case, the majority of the background signal observed was attributed to intercalation of probe into unreacted hairpin as well as genomic DNA.
(§3) Cell Lysate Experiments: HeLa or MCF-7 whole cell lysates (Santa Cruz Biotech) were used without further preparation. […] Fluorescence intensity was monitored over the course of 4 hours at 37° C.

[5] = target: T2, UNG (Homo sapiens, UniProt P13051); assay: UNG activity in HeLa cell lysate with CCVJ1; design: profile endogenous glycosylase activity in cell lysates; host or cells: HeLa whole cell lysate; settings: 1 U/mL UGI, 0.2 mg/mL HeLa lysate, 5 μM hairpin, 25 μM CCVJ1
Procedure: FIG. 19, panels A-B illustrates applications of an exemplary probe for measuring multiple repair activities in cell lysates. […] The inhibitor UGI was used at a concentration of 1 U/mL to completely abolish UNG activity. […] Activity was quantified by measuring initial rate velocity using 25 μM CCVJ1 with lysate (0.2 mg/mL) and 5 μM of UNG hairpin substrate.
It was first tested whether the UBER probe's ability to report on UNG activity in whole cell lysates using the previously described UNG hairpin substrate (FIG. 19, panel A). […] To confirm that the fluorescence response originated from endogenous UNG activity and not off-target binding with proteins or spontaneous depurination, lysate was treated with CCVJ1 and a control hairpin in which the lesion had been replaced by an undamaged T:A base pair. Importantly, the control hairpin yielded no fluorescence response indicating a low degree of false positive signal. […] CCVJ1 appears to represent the first fluorogenic probe to measure real-time UNG activity in cell lysates.
as §3

[6] = target: T2, UNG; assay: UGI IC50 measurement in UBER probe coupled assay; design: purchased OriGene; settings: UNG 5 nM, UGI 0.3 to 30 nM, initial rates after 25 minute delay, triplicate
Procedure: FIG. 15, panels A-G provides quantitative coupled assays using Compound (1) (CCJV1). Shown are data from reaction of lesion containing substrates with UNG and SMUG1 (5 nM) (panel A), MPG (100 nM) (panel B), NTH1 (500 nM) (panel C), OGG1 (100 nM) in real-time (panel D) with lesion containing DNA (2 μM) and CCVJ1 (20 μM) (panels A, B and D) or lesion containing DNA (60 μM) and CCVJ1 (20 μM) […]. […] Delay time tss of 25 minutes indicated with dotted line.
Based on the results of our neighboring base effect study, several glycosylase oligonucleotide substrates were purchased or prepared in which the identity of the base lesion X was varied to correspond to the known activities of different target glycosylases (FIG. 15, panel E). For these studies human enzymes SMUG1/UNG, OGG1, MPG and NTH1, were chosen which represent a diverse array of human glycosylases. […] Assays were carried out in a 60 μL volume in a 384 well format on a microplate reader using a fluorescein filter set. For each enzyme, it was possible to observe a robust fluorescence signal (FIG. 15, panels A-D).
To test the utility of the probe coupled assay for characterizing inhibitors, it was measured the IC50 value of the UNG inhibitor UGI (FIG. 15, panels F-G). […] In all cases, the z-factor of the assay was calculated to be >0.95, well above the threshold necessary for high throughput screening. […]

T2 sequence (P13051 whole entry): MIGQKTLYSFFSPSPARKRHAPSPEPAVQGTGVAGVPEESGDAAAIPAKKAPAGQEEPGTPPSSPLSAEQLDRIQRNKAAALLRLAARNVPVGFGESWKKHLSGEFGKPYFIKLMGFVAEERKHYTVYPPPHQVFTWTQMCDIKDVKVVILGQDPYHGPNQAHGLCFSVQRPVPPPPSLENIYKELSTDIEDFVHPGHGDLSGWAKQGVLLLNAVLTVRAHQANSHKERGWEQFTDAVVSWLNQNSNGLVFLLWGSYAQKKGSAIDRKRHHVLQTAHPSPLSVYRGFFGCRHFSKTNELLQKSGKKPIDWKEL
T1 sequence (O15527 whole entry): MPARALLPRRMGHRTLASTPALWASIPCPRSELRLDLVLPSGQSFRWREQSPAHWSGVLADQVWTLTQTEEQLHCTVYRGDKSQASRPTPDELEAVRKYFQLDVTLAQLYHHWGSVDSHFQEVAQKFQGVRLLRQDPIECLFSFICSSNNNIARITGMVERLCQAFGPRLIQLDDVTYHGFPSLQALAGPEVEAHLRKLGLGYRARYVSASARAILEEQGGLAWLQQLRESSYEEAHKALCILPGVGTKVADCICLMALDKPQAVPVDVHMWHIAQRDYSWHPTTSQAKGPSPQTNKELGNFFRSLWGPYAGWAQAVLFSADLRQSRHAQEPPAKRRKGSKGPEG

Molecule: CN(C)c1ccc(S(=O)(=O)N(C)CCON)c2nonc12 [BD1]
- fluorescence response with AP DNA [1]: substantial fluorescence responses
- rate of oxime formation with AP DNA [2]: accelerated rates of oxime formation

Molecule: CN(CCON)c1ccc(S(=O)(=O)N(C)C)c2nonc12 [BD2]
- fluorescence response with AP DNA [1]: substantial fluorescence responses
- rate of oxime formation with AP DNA [2]: accelerated rates of oxime formation

Molecule: N#C/C(=C\c1cc2c3c(c1)CCCN3CCC2)C(=O)NCCOCCON [CCVJ2]
- brightness when bound to the AP site compared to CCVJ1 [1]: diminished compared to that of CCVJ1
- reaction rate of oxime formation relative to CCVJ1 (longer linker) [2]: slowed the reaction rate considerably

Molecule: N#C/C(=C\c1cc2c3c(c1)CCCN3CCC2)C(=O)NCCOCCOCCON [CCVJ3]
- brightness when bound to the AP site compared to CCVJ1 [1]: diminished compared to that of CCVJ1
- reaction rate of oxime formation relative to CCVJ1 (longer linker) [2]: slowed the reaction rate considerably

Molecule: NCCON [Compound L1, NH2CH2CH2ONH2]
- effect as competing alpha nucleophile on reaction of CCVJ1 with AP DNA [3]: no effect
- effect as competing alpha nucleophile on reaction of CCVJ1 with AP DNA ([3]; listed as NH2CH2CH2ONH2): does not significantly compete with CCVJ1 for oxime formation

Molecule: CN(CCON)c1ccc2c3c(cccc13)C(=O)N(CCC(=O)O)C2=O [NP1]
- fluorescence response with AP DNA [1]: substantial fluorescence responses
- rate of oxime formation with AP DNA [2]: accelerated rates of oxime formation

Molecule: NC(=O)c1cccc(-c2ccc(S(=O)(=O)Nc3ccc4c(c3)N(C(=O)C3CC3)CCC4)cc2)c1 [SU0268]
- effect of inhibitor on OGG1 repair activity in lysate [4]: completely abolished OGG1 repair activity

B1: UGI: the UNG inhibitor UGI; tight 1:1 binding stoichiometry; protein inhibitor (protein, UniProt P14739 1-84, looked up)
Uracil-DNA glycosylase …: MTNLSDIIEKETGKQLVIQESILMLPEEVEEVIGNKPESDILVHTAYDESTDENVMLLTSDAPEYKPWALVIQDSNGENKIKML
- effect of inhibitor on fluorescence response (UNG activity) in lysate [5]: completely ablated the fluorescence response
- IC50 [6]: 7.53 ± 0.44 nM
